Assay results taken from patent US20260166084A1, “NOVEL DRUG-INDUCIBLE DEGRADATION TAGS” (THE INSTITUTE OF CANCER RESEARCH: ROYAL CANCER HOSPITAL, priority 2022, published 2026).
“Also recorded” adds a separate entry of the source.

Tests used:
[1] = system: HMEC cells; assay: Nuclear localisation by immunofluorescence in HMEC; type: cell-based, human; conditions: fluorescence microscopy, FIG. 3b and 13
Method: To determine localisation of “superdegron” which has a degree of homology with iTAG1, the inventors cloned superdegron into the expression vector to replace iTAG1 as the degron fused with GFP.
HMEC cells were seeded in glass bottom 96-well plates (Perkin Elmer) at a 1000 cells/well and treated with 1 μg/ml DOX for 24 h to induce construct. Cells were fixed using 4% paraformaldehyde in PBS solution for 15 min at 37° C. and permeabilised with 0.05% Titon-X-100 detergent for 10 min at room temperature. Prior to proceeding to cell imaging, the cells were incubated for a min with 1 μg/ml DAPI (ThermoFisher Scientific) to stain the cell nuclei. Cells were visualised on the Zeiss Axio Vert.A1 FL-LED inverted epifluorescence microscope (Zeiss) and images were captured using the ZEN Blue software (Zeiss).

[2] = system: anti-B7H3 chimeric antigen receptor (TE9); assay: Cell surface expression of tagged CAR in transduced Jurkat and 293T cells by flow cytometry; type: cell-based, human; conditions: for surface expression of tagged CARs: transduced Jurkat cells, 41BB and CD28 versions of TE9 CAR, FIG. 10; for cell surface expression of tagged CAR relative to CD34 marker: transduced 293T and Jurkat cells, FIG. 6
Method: Initial experiments evaluated expression and degradation in human Jurat T cell leukaemia cells or human 293T cells, which were stably transduced with untagged, iTAG1(DCD23)-tagged, and iTAG2-tagged anti-B7H3 CAR-T cells. Here the relative expression of the CAR and the CD34 marker gene are determined by direct staining and evaluation by flow cytometry.
Jurkat and 293T cell lines were grown in DMEM with 10% fetal calf serum and transduced with constructs containing CAR+/−degrader tag. Transduction efficiency was analysed 72 hours post transduction by flow cytometry, staining for the CD34 epitope encoded by the RQR8 gene.
(§1) CAR surface expression for transduction efficiency and degradation experiments in primary cells and cell lines was quantified using his-tagged B7H3 protein in combination with anti his-tagged fluorescent antibody (J095G45, BioLegend), and directly fluorescently labelled anti CD34 antibody (QBEnd10, R&D), using LSR2 cytometer. Analysis used Flo-Jo software.

[3] = system: iTAG2 and DCD23-tagged chimeric antigen receptor (TE9-28-Z); assay: IMiD induced degradation of tagged CAR in transduced Jurkat cells; type: cell-based, human; conditions: for time of drug treatment at which maximal reduction of surface expression is detectable: lenalidomide, pomalidomide, iberdomide
Method: (§2) CAR expression in PBMC-derived T cells following degradation with 10, 1, 0.1, 0.01, 0.001 or 0 uM iberdomide after 24 hours, was assessed by flow cytometry. To assess CAR functionality+/−degrader tag, transduced T cells were cultured 24 hours with SUPT1+/−B7H3 at a 1:1 ratio. Supernatant was harvested, and IL-2 and IFNγ levels determined by ELISA.
as §1

[4] = system: TE9-28-Z CAR; assay: IMiD induced degradation and re-expression of tagged CAR in primary human T cells; type: cell-based
Description: The re-expression of degraded chimeric antigen receptors following removal of the degrader drug is important for the CAR-T cell to be able to toggle between active and resting states, thereby allowing additional therapeutic manipulation and fine-tuning.
To evaluate the general functionality of the TE9-28Z-iTAG2 anti-B7H3 CAR-T construct when expressed from a different viral vector, driven by alternate promoter, the construct was cloned into third generation lentivector pCLL2 backbone and viral supernatant was generated by transient transfection of 293T cells, with virus pseudotyped with VSV-G. Two versions of the TE9-28Z-iTAG2 sequence were evaluated in this format, which were with and without codon optimisation and removal of cloning scars. There are no differences in amino acid sequence of iTAG2 between original (construct 3) and codon optimised (construct 4) versions (FIG. 16 a and b). […] The log reduction in CAR expression as expressed as geometric median fluorescence intensity (gMFI) was highly consistent. […]
PBMC-derived T cells from 2 healthy donor blood cones were cultured following CD56 depletion (day0) which was performed using Miltenyi CD56 depletion beads and magnetic negative selection using LD columns according to manufacturer's instructions. […] Transduction efficiency was assessed 4 days post transduction by flow cytometry staining for RQR8 and CAR expression.
CAR expression in PBMC-derived T cells following degradation with 10, 1, 0.1, 0.01, 0.001 or 0 uM iberdomide after 24 hours, was assessed by flow cytometry. […] Supernatant was harvested, and IL-2 and IFNγ levels determined by ELISA.
as §1, with “Analysis used Flo-Jo software.” left out

[5] = system: SupT1 cells transduced to express human B7H3; assay: CAR functionality: cytokine ELISA after co-culture with SupT1-B7H3 targets; type: cell-based; conditions: primary human T cells
Description: To evaluate whether the brighter CAR expression of iTAG2 tagged CAR compared with DCD23-tagged CAR translated into greater effector function, the respective CAR-T populations from the two independent donors were co-cultured overnight with human SupT1 leukaemia target cells isogenic for the target antigen B7H3. Wild type SupT1 have no detectable B7H3 expression. Following overnight culture of T cells with the targets, culture supernatant was harvested and evaluated for inflammatory cytokines interferon gamma and Interleukin-2 by ELISA (FIG. 9).
as §2

[6] = molecular target: T1, CRBN/DDB1 complex (Homo sapiens, UniProt Q96SW2); assay: Size exclusion chromatography of CRBN/DDB1 and iTAG2 with or without iberdomide; type: binding; conditions: 15 μM CRBN/DDB1, 50 μM iTAG2, 100 μM iberdomide, FIG. 14
T1 construct: made in house
Description: Biochemical evidence for IMiD-dependent formation of a direct interaction between iTAG2 and the CRBN/DDB1 complex was generated using size exclusion chromatography (SEC). Purified CRBN/DDB1 protein complex and iTAG2 protein were mixed together and subjected to SEC in the presence or absence of iberdomide, shown in FIG. 14. The SEC peak 1 corresponding to the higher molecular weight species was shifted towards a lower elution time in the presence of iberdomide, with a slight increase in the optical density at 280 nm, which is consistent with the formation of a larger complex in the presence of iberdomide (FIG. 14A). SDS-PAGE analysis of representative fractions of the SEC analysis in the absence of iberdomide confirmed that the SEC peak 1 contains only DDB1 and CRBN proteins, with iTAG2 only present in the SEC peak 2 (FIG. 14B).
SEC was performed using a Superose 6 5/150 GL column (Cytiva Life Sciences) mounted on an Agilent 1260 Infinity II LC System HPLC system. […] 100 μL fractions were collected and samples spanning the elution peaks were analysed by SDS-PAGE on precast NuPAGE 4-12% Bis-Tris gels (Invitrogen) using standard protocols, with SeeBlue Plus2 pre-stained protein standards (Invitrogen) loaded on the first lane of each gel.

[7] = system: degron containing domains (DCDs); assay: Degradation matrix of DCD tags with IMiD/CELMoD panel by flow cytometry; type: cell-based; conditions: panel of IMiD/CELMoD small molecules, FIG. 1
Description: FIG. 1: Experimental evaluation of the DCD tags. (a) Heat map summary of the degradation matrix data of all the DCDs tested in flow cytometry experiments. Normalized values were represented in the Log 2 Fold Change relative to the DMSO control. […] (b) Representation of iTAG1-DCD23 (60 aa). The 2 Cys and 2 His from the C2H2 zinc finger motif are highlighted in light grey. The crucial Glycine in the b-hairpin loop degron is highlighted in bold dark grey.
To address the limitations of the currently available protein modulation tools, the inventors developed a novel and robust system for targeted protein degradation by exploiting the fusion of an IMiD/CeLMOD recognition sequence to a protein of interest. […] This 60 amino acid sequence is referred to as iTAG1 (DCD23) herein.
Construct expression was induced by treating cells with 1 μg/ml DOX for 24 h. The cells were treated with IMiDs/CELMoDs at concentrations and time-points indicated for each experimental setting. Cells were collected, on ice, in sterile 5 ml polystyrene round-bottom tubes. DAPI (4′,6-diamidino-2-phenylindole; ThermoFisher Scientific) was added to the cell suspension at a ratio of 1:1000, as a marker for cell viability. The EGFP signal was measured on the BD LSR II flow cytometer (BD Biosciences). Further processing of the results was performed using FlowJo 10 Software (FlowJo).

[8] = molecular target: T2, complexes formed between CRBN/DDB1 and IMiDs (Homo sapiens, UniProt Q96SW2); assay: Aiolos peptide-based TR-FRET assay; type: binding; conditions: IMiDs at 10 μM
T2 construct: 5 nM WT full length CRBN/DDB1 complex; made in house
Method: A schematic representation of the Aiolos peptide-based time resolved-Förster resonance energy transfer (TR-FRET) assay is presented in FIG. 11. […] The results are presented in FIG. 12, including the IC50s calculated from the TR-FRET curves. Overall, the IC50s obtained for iTAG2 were higher than those obtained for iTAG1 with about a 10-fold difference.
All TR-FRET assays were ran in Black 384-well ProxiPlate Plus (Perkin-Elmer, USA), in a buffer containing 20 mM HEPES pH 8.0, 150 mM NaCl, 0.5 mM TCEP, 0.05% Tween 20 and 0.05% BSA, with a final assay volume of 10 μL. An Echo E550 (Beckman Coulter, USA) acoustic liquid dispenser was used to create final concentration ranges from 82 μM down to 2.05 nM for iTAG1 and 27 μM down to 0.68 nM for iTAG2. Final concentrations of 5 nM WT full length CRBN/DDB1 complex, 750 nM Sulfo-Cy5 fluorescent Aiolos-based peptidic probe (Cambridge Research Biochemicals, UK), 750 nM Zn(OAc)^2 and 0.5 nM MAb Anti-6HIS-Terbium cryptate Gold (Cisbio, France) were added with a Tempest liquid handler (Formulatrix, USA). Finally, IMiDs were added to a final concentration of 10 μM with the Echo. Plates were sealed, centrifuged at 200 g for 1 min and stored overnight at 4° C. The TR-FRET signals were read using a PHERAstar FSX plate reader (BMG Labtech, Germany). Final signal was measured as the ratio: […]

[9] = 1:1 with SupT1-B7H3, overnight, ELISA, FIG. 9

T2 sequence (Q96SW2 whole entry): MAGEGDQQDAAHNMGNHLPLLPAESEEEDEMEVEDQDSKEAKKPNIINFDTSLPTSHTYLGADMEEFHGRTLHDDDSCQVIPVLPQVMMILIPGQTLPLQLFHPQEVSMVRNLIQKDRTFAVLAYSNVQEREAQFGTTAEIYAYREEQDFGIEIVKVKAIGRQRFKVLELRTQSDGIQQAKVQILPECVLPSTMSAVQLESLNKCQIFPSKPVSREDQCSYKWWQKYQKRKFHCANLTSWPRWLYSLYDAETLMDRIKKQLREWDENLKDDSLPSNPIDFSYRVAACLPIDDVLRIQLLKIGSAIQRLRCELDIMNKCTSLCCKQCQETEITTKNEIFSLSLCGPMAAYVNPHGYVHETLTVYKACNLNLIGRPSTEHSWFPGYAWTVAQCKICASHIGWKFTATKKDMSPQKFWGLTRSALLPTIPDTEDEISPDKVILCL
T2 sequence (Q16531 whole entry partner): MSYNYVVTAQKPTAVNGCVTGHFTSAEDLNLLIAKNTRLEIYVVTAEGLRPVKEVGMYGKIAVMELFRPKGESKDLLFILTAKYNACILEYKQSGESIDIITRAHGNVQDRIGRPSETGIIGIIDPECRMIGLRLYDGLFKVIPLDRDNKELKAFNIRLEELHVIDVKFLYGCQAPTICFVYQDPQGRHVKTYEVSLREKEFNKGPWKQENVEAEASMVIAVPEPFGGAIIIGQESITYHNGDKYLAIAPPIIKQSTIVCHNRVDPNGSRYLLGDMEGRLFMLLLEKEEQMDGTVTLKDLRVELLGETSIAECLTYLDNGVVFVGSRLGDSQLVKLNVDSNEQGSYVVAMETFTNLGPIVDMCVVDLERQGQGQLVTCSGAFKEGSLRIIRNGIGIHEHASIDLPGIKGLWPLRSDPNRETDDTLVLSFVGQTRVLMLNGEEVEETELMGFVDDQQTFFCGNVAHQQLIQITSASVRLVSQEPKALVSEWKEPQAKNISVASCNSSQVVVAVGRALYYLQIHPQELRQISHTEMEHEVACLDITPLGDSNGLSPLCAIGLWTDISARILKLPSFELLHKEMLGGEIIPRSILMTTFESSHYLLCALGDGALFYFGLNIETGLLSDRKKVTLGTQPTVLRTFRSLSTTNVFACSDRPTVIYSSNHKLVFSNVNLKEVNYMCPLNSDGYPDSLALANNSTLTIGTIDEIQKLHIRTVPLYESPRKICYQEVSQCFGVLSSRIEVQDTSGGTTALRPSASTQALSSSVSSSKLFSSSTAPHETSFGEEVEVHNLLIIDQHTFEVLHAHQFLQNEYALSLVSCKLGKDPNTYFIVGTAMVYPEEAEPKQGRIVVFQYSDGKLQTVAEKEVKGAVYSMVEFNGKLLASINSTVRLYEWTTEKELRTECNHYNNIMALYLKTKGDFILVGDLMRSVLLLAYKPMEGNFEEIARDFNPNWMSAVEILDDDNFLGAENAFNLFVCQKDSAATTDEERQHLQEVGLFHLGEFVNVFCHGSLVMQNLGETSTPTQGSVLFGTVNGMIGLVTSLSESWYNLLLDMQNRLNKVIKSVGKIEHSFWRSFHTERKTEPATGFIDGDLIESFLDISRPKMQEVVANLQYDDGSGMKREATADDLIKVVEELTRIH
T1 sequence (Q96SW2 whole entry, one chain of several): as the sequence (Q96SW2 whole entry) above
T1 sequence (Q16531 2-1140 partner, one chain of several): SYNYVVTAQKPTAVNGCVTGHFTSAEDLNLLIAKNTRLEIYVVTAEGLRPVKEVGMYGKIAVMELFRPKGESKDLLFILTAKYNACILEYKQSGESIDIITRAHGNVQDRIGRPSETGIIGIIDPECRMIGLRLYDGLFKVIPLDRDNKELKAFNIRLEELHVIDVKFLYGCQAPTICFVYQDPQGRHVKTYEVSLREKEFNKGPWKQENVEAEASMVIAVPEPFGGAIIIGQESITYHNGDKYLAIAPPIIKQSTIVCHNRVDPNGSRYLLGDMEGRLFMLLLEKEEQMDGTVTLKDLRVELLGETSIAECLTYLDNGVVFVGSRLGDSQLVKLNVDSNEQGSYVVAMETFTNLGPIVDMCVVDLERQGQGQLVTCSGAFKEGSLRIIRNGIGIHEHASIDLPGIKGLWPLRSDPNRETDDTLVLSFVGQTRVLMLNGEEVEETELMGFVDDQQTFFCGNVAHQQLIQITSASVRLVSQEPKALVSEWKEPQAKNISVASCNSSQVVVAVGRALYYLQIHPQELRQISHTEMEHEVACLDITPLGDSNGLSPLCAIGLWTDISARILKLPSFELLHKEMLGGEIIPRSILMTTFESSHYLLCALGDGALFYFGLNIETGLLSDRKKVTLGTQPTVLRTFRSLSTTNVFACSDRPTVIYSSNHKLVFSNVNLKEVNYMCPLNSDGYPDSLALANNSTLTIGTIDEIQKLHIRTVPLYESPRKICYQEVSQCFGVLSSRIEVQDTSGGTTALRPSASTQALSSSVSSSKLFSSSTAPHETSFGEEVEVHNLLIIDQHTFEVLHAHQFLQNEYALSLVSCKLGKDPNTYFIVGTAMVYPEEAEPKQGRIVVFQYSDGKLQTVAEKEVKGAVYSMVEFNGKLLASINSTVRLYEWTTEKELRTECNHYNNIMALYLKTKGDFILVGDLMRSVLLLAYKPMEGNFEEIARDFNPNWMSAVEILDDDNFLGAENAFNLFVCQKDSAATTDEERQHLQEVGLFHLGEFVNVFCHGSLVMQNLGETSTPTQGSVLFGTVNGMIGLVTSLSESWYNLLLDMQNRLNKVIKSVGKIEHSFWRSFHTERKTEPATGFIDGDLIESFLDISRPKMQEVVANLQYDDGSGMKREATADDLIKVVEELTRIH

Compound: SuperDegron: prototypic zinc finger-based 60 amino acid degron, hybrid of ZFP91 and IKZF3 (WO2019089592) (FNVLMVHKRSHTGERPLQCEICGFTCRQKGNLLRHIKLHTGEKPFKCHLCNYACQRRDAL; SuperDegron) [reference compound]
- nuclear accumulation / localisation of tagged EGFP/GFP [1]: strong nuclear localisation
- surface expression of tagged CARs [2]: weak surface expression

Compound: iTAG2: mutated iTAG1 degron tag, SEQ ID NO: 43, PNVLMVHNESHTGEIPLQCEICGFTCEQAGNLLNHIELHSGEIPFKCHLCNYACRRRDAL (iTAG2)
- nuclear accumulation / localisation of tagged EGFP/GFP [1]: abolished nuclear accumulation; also recorded: cytoplasmic localisation
- cell surface expression of tagged CAR relative to CD34 marker [2]: superior cell surface expression
- surface expression of tagged CARs [2]: same expression as wild type
- time of drug treatment at which maximal reduction of surface expression is detectable [3]: 4 h
- CAR re-expression after drug washout ([4]; washed in PBS, rested 24 h in RPMI1640, FIG. 15): re-upregulated after IMiD washout
- antigen-dependent reactivity, superiority over DCD23-tagged CAR-T [5]: approximately 10 fold
- effector function compared with untagged CAR ([5]; SupT1-B7H3, FIG. 9): not significantly different to untagged CAR
- complex formation by SEC and SDS-PAGE [6]: formation of a complex between DDB1, CRBN and iTAG2 in the presence of iberdomide

Compound: iTAG1: 60 amino acid degron tag based on a chimeric sequence of Ikaros and ZFP91 (PNVLMVHKRSHTGERPLQCEICGFTCRQKGNLLRHIKLHSGEKPFKCHLCNYACRRRDAL)
- drug-induced degradation of DCD tag [7]: induces acute target degradation in vitro and in vivo
- nuclear accumulation / localisation of tagged EGFP/GFP [1]: predominant nuclear localisation
- cell surface expression of tagged CAR relative to CD34 marker [2]: relatively poor cell surface expression
- surface expression of tagged CARs [2]: weak surface expression
- time of drug treatment at which maximal reduction of surface expression is detectable [3]: 4 h
- reduced IL-2 secretion compared with iTAG2 fusion protein [5, 9]: approximately 30 fold
- reduced effector function compared with iTAG2 fusion protein, interferon gamma secretion [5, 9]: approximately 5 fold

Compound: O=C1CC[C@H](N2Cc3c(OCc4ccc(CN5CCOCC5)cc4)cccc3C2=O)C(=O)N1 [Iberdomide/ CC220, Iberdomide]
- drug concentration at which nearly maximal downregulation is observed ([3]; iTAG1(DCD23) and iTAG2 tagged CAR, FIG. 7): 0.01 µM
- potency for degradation among lenalidomide, pomalidomide and iberdomide ([3]; tagged CAR, FIG. 7): highest potency
- optimal IMiD concentration to mediate CAR downregulation upon treatment and re-upregulation upon withdrawal ([4]; TE9-iTAG2 CAR-T, overnight treatment, wash, 24 h rest, FIG. 15): 0.01 µM
- CAR expression after drug treatment ([4]; primary human T cells, 10 uM iberdomide for 24 hours, FIG. 8): near complete loss of expression of the brightly expressed CAR population
- relative affinity of iTAG1 and iTAG2 for CRBN/DDB1-IMiD complex, order of IMiDs [8]: tightest binding
